Measurements from PMC9860869, “First Phytochemical Profiling and In-Vitro Antiprotozoal Activity of Essential Oil and Extract of Plagiochila porelloides” (Molecules, 2023).
Blank lines part the entries; values can stand above or below the compound they belong to.

Columns and labels:
[1] = Cytotoxicity assay on WI38 cells; format: cell-based; details: human, WI-38 normal fibroblast cells, pure compound (positive control), read-out: Cytotoxicity IC50 ± SD WI38
Description: (§1) Trypanosoma brucei brucei (strain 427) bloodstream forms were cultured in vitro in HMI9 medium containing 10% heat-inactivated fetal bovine serum. Leishmania mexicana mexicana promastigotes (MHOM/BZ/84/BEL46) were cultivated in vitro in a semi-defined medium (SDM-79) supplemented with 15% heat-inactivated fetal bovine serum. The human normal fibroblast cell line, WI-38, was cultivated in vitro in DMEM medium containing 4 mM L-glutamine, 1 mM sodium pyruvate supplemented with 10% heat-inactivated fetal bovine serum and penicillin–streptomycin (100 UI/mL to 100 µg/mL). All cells were incubated in a humidified atmosphere with 5% CO2 at 37 °C except the Leishmania promastigotes which were incubated at 28 °C.
(§2) The cytotoxicity of the essential oil and extracts on WI-38 and J774 cells was evaluated as previously described from the same stock solutions [45].

[2] = Cytotoxicity assay on J774 cells; format: cell-based, murine; details: mouse, J774 macrophage-like cells, pure compound (positive control), read-out: Cytotoxicity IC50 ± SD J774
Description: as §2

[3] = tested on: Leishmania mexicana mexicana promastigotes; assay: In vitro test for antileishmanial activity; format: cell-based; details: Lmm promastigotes, pure compound (positive control), read-out: Antiprotozoal assay IC50 ± SD Lmm
Description: as §1
(§3) The in vitro test was performed as described previously. Pentamidine isethionate salt (a commercial antileishmanial drug) and suramine sodium salt (a commercial antitrypanosomal drug) were used as positive controls in all experiments with an initial concentration of 10 µg/mL. First, stock solutions of crude extracts and compounds were prepared in DMSO at 20 mg/mL (and 2 mg/mL for positive controls). The solutions were further diluted in medium to give 0.2 mg/mL stock solutions. Essential oil and extracts were tested in eight serial three-fold dilutions (final concentration range: 100–0.05 µg/mL) in 96-well microtiter plates. All tests were repeated three times in duplicate.

[4] = tested on: Trypanosoma brucei brucei (bloodstream forms); assay: In vitro test for antitrypanosomal activity; format: cell-based; details: Tbb bloodstream forms, pure compound (positive control), read-out: Antiprotozoal assay IC50 ± SD Tbb
Description: as §1, §3

SMILES: CC[C@@]1(O)C(=O)OCc2c1cc1n(c2=O)Cc2cc3ccccc3nc2-1 [Camptothecin]
IC50 [1]: 31 ± 2 nM | IC50 [2]: 10 ± 1 nM

SMILES: N=C(N)c1ccc(OCCCCCOc2ccc(C(=N)N)cc2)cc1 [Pentamidine]
IC50 [3]: 70 ± 4 nM

IC50 [4]: 30 ± 4 nM
SMILES: Cc1ccc(C(=O)Nc2ccc(S(=O)(=O)O)c3cc(S(=O)(=O)O)cc(S(=O)(=O)O)c23)cc1NC(=O)c1cccc(NC(=O)Nc2cccc(C(=O)Nc3cc(C(=O)Nc4ccc(S(=O)(=O)O)c5cc(S(=O)(=O)O)cc(S(=O)(=O)O)c45)ccc3C)c2)c1 [Suramine]
